The target in this assay is FKBP (Homo sapiens, UniProt P62942). Briefly: Ki test procedure: inhibition of peptidyl-prolyl isomerase (rotamase) activity, chymotrypsin-coupled assay. Particulars: read-out: Ki (apparent Ki, rotamase inhibition). Format: biochemical. An excerpt:
Inhibition of the peptidyl-prolyl isomerase (rotamase) activity of the inventive compounds can be evaluated by known methods described in the literature (Harding, M. W. et al. Nature 341: 758-760 (1989); Holt et al. J. Am. Chem. Soc. 115: 9923-9938). These values are obtained as apparent Ki's and are presented in Table I. The cis-trans isomerization of an alanine-proline bond in a model substrate, N-succinyl-Ala-Ala-Pro-Phe-p-nitroanilide, is monitored spectro-photometrically in a chymotrypsin-coupled assay, which releases para-nitroanilide from the trans form of the substrate. The inhibition of this reaction caused by the addition of different concentrations of inhibitor is determined, and the data is analyzed as a change in first-order rate constant as a function of inhibitor concentration to yield the apparent Kivalues.
In a plastic cuvette are added […] of ice cold assay buffer (25 mM HEPES, pH 7.8, 100 mM NaCl), […] of FKBP (2.5 mM in 10 mM Tris-Cl pH 7.5, 100 mM NaCl, 1 mM dithiothreitol), […] of chymotrypsin (50 mg/mL in 1 mM HCl) and 10 mL of test compound at various concentrations in dimethyl sulfoxide. […]
The absorbance at 390 nm versus time is monitored for 90 sec using a spectrophotometer and the rate constants are determined from the absorbance versus time data files.

FKBP, sequence (P62942 whole entry): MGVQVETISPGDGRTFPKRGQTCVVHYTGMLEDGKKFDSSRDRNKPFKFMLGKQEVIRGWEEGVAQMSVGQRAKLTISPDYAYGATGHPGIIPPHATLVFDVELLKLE

Consider `CCC(C)(C)C(=O)C(=O)N1CCC[C@H]1C(=O)OC1CCC(c2ccccc2)(c2ccccc2)CC1` [4,4-diphenylcyclohexl (2S)-1-(3,3-dimethyl-2-oxopentanoyl)-pyrrolidine-2-carboxylate], for which the Ki turned out to be 5.64 µM.

The record behind these values is patent US6462072B1, “Cyclic ester or amide derivatives” (GPI NIL Holdings, Inc., priority 1998, dated 2002).
